Laboratory results reported in ChEMBL document CHEMBL4387741, “Optimization of novel reversible Bruton's tyrosine kinase inhibitors identified using Tethering-fragment-based screens” (Bioorg Med Chem, 2019).

Assays:
[1] = biological target: Serine/threonine-protein kinase Nek11 (Homo sapiens) (UniProt Q8NG66); assay: Inhibition of wild-type human partial length NEK11 (M1 to E313 residues) expressed in mammalian expression system at 1 uM by Kinomescan method relative to control
[2] = tested on: Receptor-type tyrosine-protein kinase FLT3 (Homo sapiens), P36888 [UNDEFINED MUTATION]; assay: Inhibition of human partial length FLT3 ITD/D835V double mutant expressed in bacterial expression system at 1 uM by Kinomescan method relative to control
Sequence of Receptor-type tyrosine-protein kinase FLT3 (Homo sapiens), P36888 [UNDEFINED MUTATION] (P36888 whole entry, looked up, stated change not applied, the tested form may be a part): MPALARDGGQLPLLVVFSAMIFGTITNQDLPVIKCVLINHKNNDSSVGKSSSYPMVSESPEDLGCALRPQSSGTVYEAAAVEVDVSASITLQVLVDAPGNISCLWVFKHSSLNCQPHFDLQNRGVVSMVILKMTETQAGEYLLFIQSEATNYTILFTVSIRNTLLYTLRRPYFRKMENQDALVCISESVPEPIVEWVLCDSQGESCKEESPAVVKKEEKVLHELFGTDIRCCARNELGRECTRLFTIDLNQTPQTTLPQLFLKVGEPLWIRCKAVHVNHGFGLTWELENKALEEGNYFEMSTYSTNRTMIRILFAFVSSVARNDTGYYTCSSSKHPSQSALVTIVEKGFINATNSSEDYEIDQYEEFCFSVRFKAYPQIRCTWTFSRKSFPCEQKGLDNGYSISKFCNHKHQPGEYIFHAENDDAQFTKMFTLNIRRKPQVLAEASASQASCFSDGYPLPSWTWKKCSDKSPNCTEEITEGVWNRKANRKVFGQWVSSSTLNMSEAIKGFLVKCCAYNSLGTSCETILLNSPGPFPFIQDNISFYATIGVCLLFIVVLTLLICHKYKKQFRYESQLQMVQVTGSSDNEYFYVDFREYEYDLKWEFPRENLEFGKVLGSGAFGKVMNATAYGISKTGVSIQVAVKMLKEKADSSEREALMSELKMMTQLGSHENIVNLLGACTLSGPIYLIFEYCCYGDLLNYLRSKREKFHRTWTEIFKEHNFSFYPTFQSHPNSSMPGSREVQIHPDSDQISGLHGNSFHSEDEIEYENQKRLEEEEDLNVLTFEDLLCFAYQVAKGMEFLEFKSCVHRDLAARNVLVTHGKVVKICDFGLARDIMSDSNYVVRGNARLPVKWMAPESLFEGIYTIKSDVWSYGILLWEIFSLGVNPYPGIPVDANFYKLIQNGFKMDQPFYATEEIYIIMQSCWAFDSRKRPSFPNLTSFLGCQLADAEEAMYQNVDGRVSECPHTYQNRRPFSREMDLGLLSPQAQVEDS

[3] = biological target: Testis-specific serine/threonine-protein kinase 3 (Homo sapiens) (UniProt Q96PN8); assay: Inhibition of wild-type human full length TSSK3 (M1 to T268 residues) expressed in mammalian expression system at 1 uM by Kinomescan method relative to control
[4] = biological target: Dual specificity testis-specific protein kinase 1 (Homo sapiens) (UniProt Q15569); assay: Inhibition of wild-type human full length TESK1 (R37 to S626 residues) expressed in bacterial expression system at 1 uM by Kinomescan method relative to control
[5] = biological target: Serine/threonine-protein kinase PAK 1 (Homo sapiens) (UniProt Q13153); assay: Inhibition of wild-type human partial length PAK1 (S149 to H545 residues) expressed in bacterial expression system at 1 uM by Kinomescan method relative to control
[6] = biological target: Serine/threonine-protein kinase PAK 5 (Homo sapiens) (UniProt Q9P286); assay: Inhibition of wild-type human partial length PAK7 (Y400 to H719 residues) expressed in bacterial expression system at 1 uM by Kinomescan method relative to control
Sequence of Serine/threonine-protein kinase PAK 5 (Homo sapiens) (Q9P286 whole entry, looked up, the tested form may be a part): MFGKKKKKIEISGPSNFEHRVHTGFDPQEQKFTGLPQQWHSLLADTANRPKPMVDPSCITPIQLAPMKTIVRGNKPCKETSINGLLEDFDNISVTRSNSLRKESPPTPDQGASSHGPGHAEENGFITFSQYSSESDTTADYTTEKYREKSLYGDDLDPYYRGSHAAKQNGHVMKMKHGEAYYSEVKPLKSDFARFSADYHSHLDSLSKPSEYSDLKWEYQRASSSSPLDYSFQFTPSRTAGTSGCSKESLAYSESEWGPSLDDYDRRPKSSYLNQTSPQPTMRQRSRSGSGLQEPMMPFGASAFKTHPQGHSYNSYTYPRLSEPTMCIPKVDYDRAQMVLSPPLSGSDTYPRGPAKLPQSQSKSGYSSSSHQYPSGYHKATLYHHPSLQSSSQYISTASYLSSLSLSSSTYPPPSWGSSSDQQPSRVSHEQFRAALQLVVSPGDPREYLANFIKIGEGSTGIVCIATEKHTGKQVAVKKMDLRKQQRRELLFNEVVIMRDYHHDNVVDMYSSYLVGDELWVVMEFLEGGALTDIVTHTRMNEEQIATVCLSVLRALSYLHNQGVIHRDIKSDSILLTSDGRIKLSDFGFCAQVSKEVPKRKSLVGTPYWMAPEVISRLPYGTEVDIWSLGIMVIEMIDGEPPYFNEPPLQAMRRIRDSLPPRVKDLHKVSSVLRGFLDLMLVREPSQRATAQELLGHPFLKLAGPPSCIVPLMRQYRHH

[7] = biological target: Mitogen-activated protein kinase kinase kinase 2 (Homo sapiens) (UniProt Q9Y2U5); assay: Inhibition of wild-type human partial length MAP3K2 (S315 to H619 residues) expressed in mammalian expression system at 1 uM by Kinomescan method relative to control
[8] = biological target: Casein kinase I isoform delta (Homo sapiens) (UniProt P48730); assay: Inhibition of wild-type human full length CSNK1D (M1 to K409 residues) expressed in bacterial expression system at 1 uM by Kinomescan method relative to control
Sequence of Casein kinase I isoform delta (Homo sapiens) (P48730 whole entry, looked up, the tested form may be a part, canonical isoform): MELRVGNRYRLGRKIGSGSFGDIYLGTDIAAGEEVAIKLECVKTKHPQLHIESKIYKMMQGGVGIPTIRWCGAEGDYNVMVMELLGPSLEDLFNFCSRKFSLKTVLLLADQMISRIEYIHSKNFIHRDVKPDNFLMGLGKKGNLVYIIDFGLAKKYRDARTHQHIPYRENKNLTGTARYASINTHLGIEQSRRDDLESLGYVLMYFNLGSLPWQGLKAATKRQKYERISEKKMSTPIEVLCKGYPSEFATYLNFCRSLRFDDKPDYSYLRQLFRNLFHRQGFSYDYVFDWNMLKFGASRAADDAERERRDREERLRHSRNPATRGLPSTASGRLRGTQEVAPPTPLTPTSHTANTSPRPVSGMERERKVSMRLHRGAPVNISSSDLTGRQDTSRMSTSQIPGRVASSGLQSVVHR

[9] = biological target: Serine/threonine-protein kinase 25 (Homo sapiens) (UniProt O00506); assay: Inhibition of wild-type human partial length YSK1 (V14 to H295 residues) expressed in bacterial expression system at 1 uM by Kinomescan method relative to control
[10] = tested on: Mast/stem cell growth factor receptor Kit (Homo sapiens), P10721 [A829P]; assay: Inhibition of human partial length KIT A829P mutant (I571 to D952 residues) expressed in mammalian expression system at 1 uM by Kinomescan method relative to control
[11] = biological target: Mitogen-activated protein kinase 14 (Homo sapiens) (UniProt Q16539); assay: Inhibition of wild-type human full length p38-alpha (M1 to S360 residues) expressed in bacterial expression system at 1 uM by Kinomescan method relative to control
Sequence of Mitogen-activated protein kinase 14 (Homo sapiens) (Q16539 whole entry, the tested form may be a part): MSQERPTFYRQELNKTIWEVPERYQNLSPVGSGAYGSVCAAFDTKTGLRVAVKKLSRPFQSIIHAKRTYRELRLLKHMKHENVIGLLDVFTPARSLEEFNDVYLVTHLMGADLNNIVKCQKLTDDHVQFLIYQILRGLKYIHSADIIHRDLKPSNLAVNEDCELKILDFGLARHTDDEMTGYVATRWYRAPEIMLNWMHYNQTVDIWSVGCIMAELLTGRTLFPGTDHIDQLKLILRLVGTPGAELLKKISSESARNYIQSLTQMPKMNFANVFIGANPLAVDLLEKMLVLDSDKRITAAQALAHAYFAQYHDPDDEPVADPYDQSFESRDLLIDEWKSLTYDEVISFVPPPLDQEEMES

[12] = biological target: Myosin-IIIa (Homo sapiens) (UniProt Q8NEV4); assay: Inhibition of wild-type human partial length MYO3A (M1 to K338 residues) expressed in bacterial expression system at 1 uM by Kinomescan method relative to control
[13] = biological target: Eukaryotic translation initiation factor 2-alpha kinase 1 (Homo sapiens) (UniProt Q9BQI3); assay: Inhibition of wild-type human partial length EIF2AK1 (Q147 to E603 residues) expressed in mammalian expression system at 1 uM by Kinomescan method relative to control
[14] = biological target: Tyrosine-protein kinase Yes (Homo sapiens) (UniProt P07947); assay: Inhibition of wild-type human partial length YES (T257 to L543 residues) expressed in bacterial expression system at 1 uM by Kinomescan method relative to control
[15] = biological target: Serine/threonine-protein kinase DCLK2 (Homo sapiens) (UniProt Q8N568); assay: Inhibition of wild-type human partial length DCAMKL2 (K273 to V664 residues) expressed in bacterial expression system at 1 uM by Kinomescan method relative to control
[16] = biological target: Cyclin-G-associated kinase (Homo sapiens) (UniProt O14976); assay: Inhibition of wild-type human partial length GAK (G13 to Y338 residues) expressed in bacterial expression system at 1 uM by Kinomescan method relative to control
[17] = biological target: Serine/threonine-protein kinase SIK1 (Homo sapiens) (UniProt P57059); assay: Inhibition of wild-type human partial length SIK (M1 to Y304 residues) expressed in bacterial expression system at 10 uM by Kinomescan method relative to control
[18] = biological target: Aurora kinase A (Homo sapiens) (UniProt O14965); assay: Inhibition of wild-type human partial length AURKA (E122 to K401 residues) expressed in mammalian expression system at 10 uM by Kinomescan method relative to control
[19] = biological target: Mitogen-activated protein kinase 11 (Homo sapiens) (UniProt Q15759); assay: Inhibition of wild-type human full length p38-beta (M1 to Q364 residues) expressed in bacterial expression system at 10 uM by Kinomescan method relative to control
Sequence of Mitogen-activated protein kinase 11 (Homo sapiens) (Q15759 whole entry, the tested form may be a part): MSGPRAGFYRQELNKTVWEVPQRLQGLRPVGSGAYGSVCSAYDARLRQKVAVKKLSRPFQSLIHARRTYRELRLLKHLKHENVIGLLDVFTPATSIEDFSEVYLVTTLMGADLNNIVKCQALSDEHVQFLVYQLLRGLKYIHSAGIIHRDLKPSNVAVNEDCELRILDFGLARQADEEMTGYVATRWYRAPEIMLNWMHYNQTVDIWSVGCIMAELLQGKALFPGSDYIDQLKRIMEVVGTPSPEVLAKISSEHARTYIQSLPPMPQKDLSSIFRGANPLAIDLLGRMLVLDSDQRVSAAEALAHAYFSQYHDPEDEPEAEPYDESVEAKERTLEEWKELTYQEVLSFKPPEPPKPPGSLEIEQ

[20] = biological target: Serine/threonine-protein kinase D2 (Homo sapiens) (UniProt Q9BZL6); assay: Inhibition of wild-type human partial length PRKD2 (A519 to E838 residues) expressed in bacterial expression system at 10 uM by Kinomescan method relative to control
[21] = biological target: Serine/threonine-protein kinase Chk1 (Homo sapiens) (UniProt O14757); assay: Inhibition of wild-type human partial length CHEK1 (M1 to G289 residues) expressed in bacterial expression system at 10 uM by Kinomescan method relative to control
Sequence of Serine/threonine-protein kinase Chk1 (Homo sapiens) (O14757 whole entry, the tested form may be a part): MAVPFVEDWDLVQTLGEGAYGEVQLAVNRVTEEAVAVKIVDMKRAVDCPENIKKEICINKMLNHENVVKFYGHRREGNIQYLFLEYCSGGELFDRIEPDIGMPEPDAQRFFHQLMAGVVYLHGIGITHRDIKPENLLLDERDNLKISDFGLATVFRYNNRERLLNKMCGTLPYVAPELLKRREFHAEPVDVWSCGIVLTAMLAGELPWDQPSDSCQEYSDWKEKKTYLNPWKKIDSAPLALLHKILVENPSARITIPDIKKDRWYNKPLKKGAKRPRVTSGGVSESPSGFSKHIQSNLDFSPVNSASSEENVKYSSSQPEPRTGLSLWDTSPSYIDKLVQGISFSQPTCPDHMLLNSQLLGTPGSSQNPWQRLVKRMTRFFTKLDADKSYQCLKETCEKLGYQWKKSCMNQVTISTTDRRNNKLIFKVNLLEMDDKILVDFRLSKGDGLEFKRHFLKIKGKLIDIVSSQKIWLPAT

[22] = tested on: Receptor-type tyrosine-protein kinase FLT3 (Homo sapiens), P36888 [UNDEFINED MUTATION]; assay: Inhibition of human partial length FLT3 ITD mutant expressed in bacterial expression system at 10 uM by Kinomescan method relative to control
[23] = biological target: Uncharacterized serine/threonine-protein kinase SBK3 (Homo sapiens) (UniProt P0C264); assay: Inhibition of wild-type human partial length SgK110 (L22 to R329 residues) expressed in bacterial expression system at 10 uM by Kinomescan method relative to control
[24] = tested on: Epidermal growth factor receptor (Homo sapiens), P00533 [UNDEFINED MUTATION]; assay: Inhibition of human partial length EGFR E746-A750del mutant expressed in bacterial expression system at 10 uM by Kinomescan method relative to control
Sequence of Epidermal growth factor receptor (Homo sapiens), P00533 [UNDEFINED MUTATION] (P00533 whole entry, looked up, stated change not applied, the tested form may be a part): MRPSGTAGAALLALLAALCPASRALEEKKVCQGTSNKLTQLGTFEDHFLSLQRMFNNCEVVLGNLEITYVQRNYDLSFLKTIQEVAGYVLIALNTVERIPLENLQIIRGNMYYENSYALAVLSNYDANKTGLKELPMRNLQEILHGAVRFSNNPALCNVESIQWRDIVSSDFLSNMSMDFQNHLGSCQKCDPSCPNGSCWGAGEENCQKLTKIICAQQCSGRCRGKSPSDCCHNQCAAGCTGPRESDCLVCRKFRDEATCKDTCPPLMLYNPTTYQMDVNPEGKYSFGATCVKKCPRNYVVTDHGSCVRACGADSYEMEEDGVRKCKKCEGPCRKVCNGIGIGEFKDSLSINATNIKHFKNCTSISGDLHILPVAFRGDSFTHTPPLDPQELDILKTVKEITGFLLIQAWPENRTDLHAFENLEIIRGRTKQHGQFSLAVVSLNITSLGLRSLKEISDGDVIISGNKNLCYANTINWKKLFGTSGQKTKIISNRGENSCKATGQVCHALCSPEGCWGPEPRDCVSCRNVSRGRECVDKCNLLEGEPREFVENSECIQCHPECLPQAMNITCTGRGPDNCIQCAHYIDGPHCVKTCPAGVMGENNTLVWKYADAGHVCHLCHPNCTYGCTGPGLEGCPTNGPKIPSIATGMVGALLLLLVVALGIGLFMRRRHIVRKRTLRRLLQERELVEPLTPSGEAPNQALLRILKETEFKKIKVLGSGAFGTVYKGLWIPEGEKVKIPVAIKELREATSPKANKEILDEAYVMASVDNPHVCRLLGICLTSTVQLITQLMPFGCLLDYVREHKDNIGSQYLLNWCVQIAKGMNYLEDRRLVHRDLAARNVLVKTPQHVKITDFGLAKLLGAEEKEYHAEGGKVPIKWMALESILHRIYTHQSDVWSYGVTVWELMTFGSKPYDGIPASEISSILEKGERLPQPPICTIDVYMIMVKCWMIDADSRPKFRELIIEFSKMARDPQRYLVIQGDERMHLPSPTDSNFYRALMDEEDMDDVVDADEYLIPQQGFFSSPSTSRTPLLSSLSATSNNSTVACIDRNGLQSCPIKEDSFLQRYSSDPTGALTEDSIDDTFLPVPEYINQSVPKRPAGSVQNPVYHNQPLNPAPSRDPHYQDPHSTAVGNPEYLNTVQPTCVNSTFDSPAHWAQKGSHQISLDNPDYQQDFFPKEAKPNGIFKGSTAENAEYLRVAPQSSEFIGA

[25] = biological target: Serine/threonine-protein kinase Sgk2 (Homo sapiens) (UniProt Q9HBY8); assay: Inhibition of wild-type human partial length SGK2 (L54 to C427 residues) expressed in mammalian expression system at 10 uM by Kinomescan method relative to control
Sequence of Serine/threonine-protein kinase Sgk2 (Homo sapiens) (Q9HBY8 whole entry, the tested form may be a part, canonical isoform): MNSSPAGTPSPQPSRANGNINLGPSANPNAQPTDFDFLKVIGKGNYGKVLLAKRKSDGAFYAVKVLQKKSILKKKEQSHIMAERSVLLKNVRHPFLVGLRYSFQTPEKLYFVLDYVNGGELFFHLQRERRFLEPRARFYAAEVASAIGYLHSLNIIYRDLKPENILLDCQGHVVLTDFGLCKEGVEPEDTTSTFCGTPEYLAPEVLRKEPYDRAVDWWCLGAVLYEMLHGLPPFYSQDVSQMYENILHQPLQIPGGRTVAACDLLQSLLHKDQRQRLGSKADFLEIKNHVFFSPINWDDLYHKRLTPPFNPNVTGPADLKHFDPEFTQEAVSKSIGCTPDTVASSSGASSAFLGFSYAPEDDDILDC

[26] = biological target: Phosphatidylinositol 4,5-bisphosphate 3-kinase catalytic subunit beta isoform (Homo sapiens) (UniProt P42338); assay: Inhibition of wild-type human partial length PIK3CB (P118 to S1070 residues) expressed in mammalian expression system at 10 uM by Kinomescan method relative to control
[27] = biological target: Casein kinase I isoform delta (Homo sapiens) (UniProt P48730); assay: Inhibition of wild-type human full length CSNK1D (M1 to K409 residues) expressed in bacterial expression system at 10 uM by Kinomescan method relative to control

For `O=C(Nc1cccc([C@@H]2CN(c3ncnc4[nH]ccc34)CCN2CCO)c1)Nc1c(F)cccc1N1CCCC1`, the inhibition [1] was 86%, the inhibition [2] was 3.5% and the inhibition [3] was 43%. The inhibition [4] was 100%, the inhibition [5] was 75% and the inhibition [6] was 98%. It also gave an inhibition [7] of 40%, an inhibition [8] of 100% and an inhibition [9] of 91%. The inhibition [10] was 28%, the inhibition [11] was 100% and the inhibition [12] was 82%. It also gave an inhibition [13] of 100%, an inhibition [14] of 67% and an inhibition [15] of 99%. For the same molecule, the inhibition [16] was 96%.
In the case of `O=C(Nc1cccc([C@H]2CCCN(c3ncnc4[nH]ccc34)C2)c1)Nc1ccccc1N1CCCC1`, the inhibition [17] is reported as 48%, the inhibition [18] is reported as 0.8% and the inhibition [19] is reported as 100%. For the same molecule, the inhibition [20] was 85%, the inhibition [21] was 100% and the inhibition [22] was 8.5%. For the same molecule, the inhibition [23] was 100%, the inhibition [24] was 75% and the inhibition [25] was 34%. The inhibition [26] was 94% and the inhibition [27] was 100%.
